Calls of active or inactive are those of the source. The calls are words filed in the database; no cut-off is given here.
Assays:
HepG2 [1] = assay: Potency index, ratio of PD IC50 to test compound IC50 for antiproliferative activity against human HepG2 cells assessed as inhibition of cell proliferation by MTT assay; format: functional
[2] = Cytotoxicity against mouse L929 cells assessed as inhibition of cell proliferation by MTT assay; format: toxicity, cell-based
HepG2 [3] = assay: Induction of apoptosis in human HepG2 cells assessed as increase in cleaved PARP level at 1.25 to 5 uM incubated for 12 hrs by Western blot analysis; format: functional, cell-based; settings: dose 1.25-5 µM
HepG2 [4] = assay: Induction of apoptosis in human HepG2 cells assessed as decrease in caspase-3 expression level at 1.25 to 5 uM incubated for 12 hrs by Western blot analysis; format: functional, cell-based; settings: dose 1.25-5 µM
[5] = molecular target: E3 ubiquitin-protein ligase Mdm2 (Homo sapiens) (UniProt Q00987); assay: Inhibition of MDM2 in human HepG2 cells assessed as increase in p53 protein level at 1.25 to 5 uM incubated for 12 hrs by Western blot analysis; format: cell-based; settings: dose 1.25-5 µM
Chain of E3 ubiquitin-protein ligase Mdm2 (Homo sapiens) (Q00987 whole entry, looked up): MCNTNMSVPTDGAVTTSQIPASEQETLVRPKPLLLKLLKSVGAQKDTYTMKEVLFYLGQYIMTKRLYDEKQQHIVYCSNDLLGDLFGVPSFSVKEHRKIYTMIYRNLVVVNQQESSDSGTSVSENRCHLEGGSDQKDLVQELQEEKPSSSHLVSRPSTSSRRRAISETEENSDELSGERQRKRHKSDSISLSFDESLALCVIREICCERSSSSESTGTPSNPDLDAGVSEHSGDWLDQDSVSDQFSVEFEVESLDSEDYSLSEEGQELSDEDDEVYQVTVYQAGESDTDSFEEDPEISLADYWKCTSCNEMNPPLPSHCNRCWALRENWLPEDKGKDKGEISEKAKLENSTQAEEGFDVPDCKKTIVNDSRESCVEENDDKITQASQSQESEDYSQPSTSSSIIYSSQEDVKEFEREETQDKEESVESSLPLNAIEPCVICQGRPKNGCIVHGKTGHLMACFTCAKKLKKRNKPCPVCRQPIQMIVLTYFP

HepG2 [6] = assay: Induction of apoptosis in human HepG2 cells assessed as increase in Bax level at 1.25 to 5 uM incubated for 12 hrs by Western blot analysis; format: functional, cell-based; settings: dose 1.25-5 µM
[7] = molecular target: E3 ubiquitin-protein ligase Mdm2 (Homo sapiens) (UniProt Q00987); assay: Inhibition of MDM2 in human HepG2 cells assessed as decrease in MDM2 protein level at 1.25 to 5 uM incubated for 12 hrs by Western blot analysis; format: cell-based; settings: dose 1.25-5 µM
HepG2 [8] = assay: Effect on cell morphology in human HepG2 cells assessed as cell shrinkage at 1.25 to 5 uM by DAPI staining based analysis; format: functional; settings: dose 1.25-5 µM
A549 = assay: Antiproliferative activity against human A549 cells assessed as inhibition of cell proliferation by MTT assay; format: functional, cell-based
HepG2 [9] = assay: Induction of apoptosis in human HepG2 cells assessed as decrease in Bcl-2 expression level at 1.25 to 5 uM incubated for 12 hrs by Western blot analysis; format: functional, cell-based; settings: dose 1.25-5 µM
HepG2 [10] = assay: Induction of apoptosis in human HepG2 cells assessed as increase in cleaved caspase-3 level at 1.25 to 5 uM incubated for 12 hrs by Western blot analysis; format: functional, cell-based; settings: dose 1.25-5 µM
HepG2 [11] = assay: Antiproliferative activity against human HepG2 cells assessed as inhibition of cell proliferation by MTT assay; format: functional, cell-based
HepG2 [12] = assay: Induction of apoptosis in human HepG2 cells at 1.25 to 5 uM by DAPI staining based analysis; format: functional, cell-based; settings: dose 1.25-5 µM
PC-3 = assay: Antiproliferative activity against human PC-3 cells assessed as inhibition of cell proliferation by MTT assay; format: functional, cell-based
HepG2 [13] = assay: Antiproliferative activity against human HepG2 cells assessed as inhibition of cell growth; format: functional, cell-based

| Activity [5] | Activity [7] | IC50 (A549) | IC50 (HepG2 [11]) | IC50 (PC-3) | IC50 (HepG2 [13]) | Compound | Ratio IC50 (HepG2 [1]) | IC50 [2] | Activity (HepG2 [3]) | Activity (HepG2 [4]) | Activity (HepG2 [6]) | Activity (HepG2 [8]) | Activity (HepG2 [9]) | Activity (HepG2 [10]) | Activity (HepG2 [12]) |
| --- | --- | --- | --- | --- | --- | --- | --- | --- | --- | --- | --- | --- | --- | --- | --- |
| Active | Active | 6.98 µM | 2.13 µM | 7.04 µM |  | CC(C)c1ccc(-c2nc(SCC(=O)O[C@H]3CC[C@@]4(C)[C@@H](CC[C@]5(C)[C@H]4C[C@@H](O)[C@@H]4C([C@@]6(C)CCCC(C)(C)O6)CC[C@]45C)C3(C)C)[nH]c(=O)c2C#N)cc1 (stereo not given in full) | 28 | 58.8 µM | Active | Active | Active | Active | Active | Active | Active |
|  |  |  |  |  | 12.5 µM | N#Cc1c(-c2cn(-c3ccccc3)nc2-c2cc3ccccc3o2)[nH]c(NN)nc1=O |  |  |  |  |  |  |  |  |  |

— ChEMBL document CHEMBL5236586, “Novel ginsenoside derivatives induce apoptosis in HepG-2 cells via the MDM2-p53 signaling pathway” (Bioorg Med Chem Lett, 2022)
